Data from article PMC9569649, “Naked and Decorated Nanoparticles Containing H2S-Releasing Doxorubicin: Preparation, Characterization and Assessment of Their Antitumoral Efficiency on Various Resistant Tumor Cells” (International Journal of Molecular Sciences, 2022).
≈ marks a conversion by molar mass, not a printed value. Where a name gives a salt, the structure may show the parent alone. Read-outs that look alike come from different tables or passages of the source.

Key:
[1] = system: MCF-7 cells; assay: Acute cytotoxicity (release of LDH); format: cell-based, human; details: MCF-7 (sensitive); 24 h, 5 µM
Method: (§1) In each of the following experimental sets, cells were incubated with specific dilutions of NPs to reach a final concentration of 5 μM H2S-DOXO, or with 5 μM DOXO or H2S-DOXO, as reference. Samples under study were: free DOXO, free H2S-DOXO, NP-H2S-DOXO 3% PVP, and HA-NP-CTAB-H2S-DOXO. Acute cytotoxicity. Culture medium from 2 × 10^6 cellule was centrifuged at 12,000 g for 15 min to pellet cell debris, while cells were washed with PBS twice, detached with trypsin/EDTA (0.05/0.02% v/v), rinsed in 0.2 mL of 82.3 mM triethanolamine phosphate-HCl (pH 7.6), and sonicated in ice with 10 s (100 W, Sonicator Labsonic); 5 μL of cell lysate was used to measure the intracellular protein content (BCA1 kit). The activity of extracellular lactate dehydrogenase (LDH), considered as an index of DOXO acute cell damage, was measured on 50 μL of cell culture medium, incubated at 37 °C with […]. The same assay was performed on 5 μL of cell lysate, to measure intracellular LDH. The kinetics of NADH oxidation was followed for 6 min measuring the absorbance at 340 nm with a Synergy HTX 96-well reader (Bio-Tek Instruments). The kinetics was linear overtime. Results were expressed as % extracellular LDH/total (extracellular+intracellular) LDH.

[2] = system: MDA-MB-231 cells; assay: Acute cytotoxicity (release of LDH); format: cell-based, human; details: MDA-MB-231 (resistant); 24 h, 5 µM
Method: as §1

[3] = system: U-2OS cells; assay: Acute cytotoxicity (release of LDH); format: cell-based, human; details: U-2OS (sensitive); 24 h, 5 µM
Method: as §1

[4] = system: U-2OS/DX580 cells; assay: Acute cytotoxicity (release of LDH); format: cell-based, human; details: U-2OS/DX580 (resistant); 24 h, 5 µM
Method: as §1

[5] = system: JC cells; assay: Acute cytotoxicity (release of LDH); format: cell-based, murine; details: JC (resistant); 24 h, 5 µM
Method: as §1

[6] = system: K7M2 cells; assay: Acute cytotoxicity (release of LDH); format: cell-based, murine; details: K7M2 (resistant); 24 h, 5 µM
Method: as §1

[7] = system: MDA-MB-231 cells; assay: Cell viability (ATPLite); format: cell-based, human; details: MDA-MB-231 (resistant); 72 h, 5 µM
Method: (§2) In each of the following experimental sets, cells were incubated with specific dilutions of NPs to reach a final concentration of 5 μM H2S-DOXO, or with 5 μM DOXO or H2S-DOXO, as reference. Samples under study were: free DOXO, free H2S-DOXO, NP-H2S-DOXO 3% PVP, and HA-NP-CTAB-H2S-DOXO. Viability. 1 × 10^5 cells were seeded in 96 well plates and incubated for 72 h with DOXO, H2S-DOXO or the different NPs. Cell viability was evaluated using the ATPLite kit (PerkinElmer, Waltham, MA), as per manufacturer’s instructions, using a Synergy-HTX 96-well reader (Bio-Tek Instruments, Winooski, VT). The relative luminescence units (RLUs) of the untreated cells were considered 100%; the RLUs of the other experimental conditions were expressed as percentage versus untreated cells.

[8] = system: U-2OS/DX580 cells; assay: Cell viability (ATPLite); format: cell-based, human; details: U-2OS/DX580 (resistant); 72 h, 5 µM
Method: as §2

[9] = system: JC cells; assay: Cell viability (ATPLite); format: cell-based, murine; details: JC (resistant); 72 h, 5 µM
Method: as §2

[10] = system: K7M2 cells; assay: Cell viability (ATPLite); format: cell-based, murine; details: K7M2 (resistant); 72 h, 5 µM
Method: as §2

[11] = system: K7M2 tumor; parameters: method as in PMID 31047947; details: cited from earlier work
[12] = system: DU-145 cells; details: cited from earlier work
[13] = H2S-DOXO solubility in aqueous and organic solvent; format: physicochemical; details: room temperature (22–23 °C)
Method: The solubility of H2S-DOXO in water/acetonitrile (60/40 v/v ratio), methanol, 0.1 M pH 7.2 phosphate buffer, propylene glycol, and benzyl alcohol was determined as follows: an excess of H2S-DOXO was added to the organic or aqueous solution (1 mL); after 2-h equilibration at room temperature (22–23 °C) in a sealed vial under 600 rpm magnetic stirring, the suspension was centrifuged at 1397× g for 10 min, and the supernatant solution analyzed by RP-HPLC. The time needed to reach equilibrium solubility was determined by analyzing samples of the equilibrating solution at different time points to establish constant drug solubility.

[14] = H2S-DOXO stability in solvents (RP-HPLC); format: physicochemical; details: 30-day storage at 4 °C, vs t0 (100%)
Method: The chemical stability of H2S-DOXO in water/acetonitrile 60/40 v/v (mobile phase for HPLC analysis) and in methanol (solvent used for extraction from NPs to determining EE%) was tested by RP-HPLC after 30-day storage (t30). In Table 2, the stability was expressed as a percentage of residual concentration at t30 compared with the concentration at t0 (100%).
H2S-DOXO stability in water/acetonitrile (60/40 v/v ratio) and methanol was determined after 30-day (t30) storage at 4 °C following the drug concentration over time by RP-HPLC and comparing it with the concentration at t0, assuming it as 100%.

[15] = H2S-DOXO stability in the presence of microemulsion ingredients (RP-HPLC); format: physicochemical; details: water/acetonitrile 60/40 v/v; for Residual Concentration % t24: 24 h
Method: The chemical stability of H2S-DOXO in water/acetonitrile 60/40 v/v in the presence of µE ingredients, at the same ratio (w/w) used in the µE, was tested to select the suitable ingredients and to ensure the integrity of H2S-DOXO into the formulation. In Table 3, the stability at t0 and t24 h (t24) is expressed as percent of residual concentration in the presence of ingredients compared with that without ingredients at t0 (100%).
H2S-DOXO stability in water/acetonitrile (60/40 v/v ratio) in the presence of NaTC, NaGC, lecithin (phosphatidylcoline 95–98%), ST, CTAB, and Cremophor®RH60 was determined at t0 and after 24 h (t24) by RP-HPLC comparing the drug concentration with that in water/acetonitrile solution at t0, assuming it as 100%.

[16] = In vitro drug release (dialysis method); format: physicochemical; details: PBS pH 7.4, 37 °C, reference: 20% propylene glycol aqueous solution
Method: In vitro drug release. Release of H2S-DOXO from NPs was evaluated using the dialysis method. An aliquot of HA-NP-CTAB-H2S-DOXO was placed in a dialysis bag, and the dialysis bag, sealed at the ends, was immersed into 40 mL of phosphate buffered saline (PBS, pH 7.4) at 37 °C stirring at 100 rpm. At predetermined time intervals, 1 mL PBS was withdrawn and replaced with an equal volume of fresh PBS. Release was monitored for 5 h. The overtime released H2S-DOXO was analyzed by RP-HPLC. As a reference, a 20% propylene glycol aqueous solution of H2S-DOXO was used.

[17] = system: MCF-7 cells; assay: Cell viability (ATPLite); format: cell-based, human; details: MCF-7 (sensitive); 72 h, 5 µM
Method: as §2

[18] = system: U-2OS cells; assay: Cell viability (ATPLite); format: cell-based, human; details: U-2OS (sensitive); 72 h, 5 µM
Method: as §2

[19] = parameters: method as in PMID 23973213; details: human serum; pseudo-first-order kinetics; cited from earlier work
[20] = system: DU-145 prostate cancer cell line; parameters: method as in PMID 29607467; details: androgen-independent, DOXO-resistant DU-145; cited from earlier work
[21] = 3-week injection, nude mice with subcutaneous DU-145 cells

In the case of COc1cccc2c1C(=O)c1c(O)c3c(c(O)c1C2=O)C[C@@](O)(C(=O)CO)C[C@@H]3O[C@H]1C[C@H](N)[C@H](O)[C@H](C)O1 [DOXO, doxorubicin hydrochloride], the “acute toxicity, release of LDH” value [1] is reported as “comparable”, the “acute toxicity, release of LDH” value [2] is reported as “devoid of any cytotoxic effects” and the “acute toxicity, release of LDH” value [3] is reported as “comparable”. The “acute toxicity, release of LDH” value [4] was “devoid of any cytotoxic effects”, the “acute toxicity, release of LDH” value [5] was “devoid of any cytotoxic effects” and the “acute toxicity, release of LDH” value [6] was “devoid of any cytotoxic effects”. The “subacute toxicity, reduced cell viability” value [7] was “ineffective”, the “subacute toxicity, reduced cell viability” value [8] was “ineffective” and the “subacute toxicity, reduced cell viability” value [9] was “ineffective”. For the same compound, the “subacute toxicity, reduced cell viability” value [10] was “ineffective”, the tumor growth ([11]; K7M2 tumors (CD44- and Pgp-overexpressing)) was “neither DOXO nor Caelyx® reduced the growth of these tumors” and the “apoptosis / caspase-3 activation in the tumor” value ([11]; K7M2 tumors) was “nor did they induce apoptosis in the tumor”. The “tolerability / safety profile” value ([12]; mouse, in vivo, sc) was “associated with weight loss and cardiotoxicity”.
For COc1cccc2c1C(=O)c1c(O)c3c(c(O)c1C2=O)C[C@@](O)(C(=O)COC(=O)c1ccc(-c2ssc(=S)c2-c2ccccc2)cc1)C[C@@H]3O[C@H]1C[C@H](N)[C@H](O)[C@H](C)O1 [H2S-DOXO, doxorubicin 14-[4-(4-phenyl-5-thioxo-5H-[1,2]dithiol-3-yl)]-benzoate], the “Solubility” value ([13]; benzyl alcohol) was 1400 ± 700 µg/mL (≈ 1.64 mM), the “Solubility” value ([13]; methanol) was 3820 ± 300 µg/mL (≈ 4.46 mM) and the “Solubility” value ([13]; pH 7.2 phosphate buffer (0.1 M)) was 30 ± 10 µg/mL (≈ 0.035 mM). The “Solubility” value ([13]; propylene glycol) was 2830 ± 300 µg/mL (≈ 3.31 mM), the “Solubility” value ([13]; water/acetonitrile (60/40 v/v)) was 3400 ± 500 µg/mL (≈ 3.97 mM) and the “Residual Concentration % t30” value ([14]; methanol) was 98.7%. For the same compound, the “Residual Concentration % t30” value ([14]; water/acetonitrile (60/40 v/v)) was 97.3%, the “Residual Concentration % t24” value ([15]; in presence of CTAB) was 100% and the “Residual Concentration % t0” value ([15]; in presence of CTAB) was 100%. For the same compound, the “Residual Concentration % t24” value ([15]; in presence of Cremophor RH60) was 0%, the “Residual Concentration % t0” value ([15]; in presence of Cremophor RH60) was 5% and the “Residual Concentration % t24” value ([15]; in presence of Epikuron 200) was 100%. For the same compound, the “Residual Concentration % t0” value ([15]; in presence of Epikuron 200) was 100%, the “Residual Concentration % t24” value ([15]; in presence of NaGC) was 98% and the “Residual Concentration % t0” value ([15]; in presence of NaGC) was 100%. The “Residual Concentration % t24” value ([15]; in presence of NaTC) was 0%, the “Residual Concentration % t0” value ([15]; in presence of NaTC) was 34% and the “Residual Concentration % t24” value ([15]; in presence of ST) was 14%. For the same compound, the “Residual Concentration % t0” value ([15]; in presence of ST) was 44%, the “H2S-DOXO release in 5 h” value [16] was roughly 100% and the “acute toxicity, release of LDH” value [1] was “comparable”. The “acute toxicity, release of LDH” value [2] was “induced a significant release of LDH”, the “acute toxicity, release of LDH” value [3] was “comparable” and the “acute toxicity, release of LDH” value [4] was “induced a significant release of LDH”. The “acute toxicity, release of LDH” value [5] was “induced a significant release of LDH”, the “acute toxicity, release of LDH” value [6] was “induced a significant release of LDH” and the “subacute toxicity, reduced cell viability” value [17] was “did not offer any further advantage compared to DOXO”. For the same compound, the “subacute toxicity, reduced cell viability” value [7] was “significantly more effective than DOXO”, the “subacute toxicity, reduced cell viability” value [18] was “did not offer any further advantage compared to DOXO” and the “subacute toxicity, reduced cell viability” value [8] was “significantly more effective than DOXO”. The “subacute toxicity, reduced cell viability” value [9] was “significantly more effective than DOXO”, the “subacute toxicity, reduced cell viability” value [10] was “significantly more effective than DOXO” and the t1/2 of hydrolysis [19] was 2.8 h. For the same compound, the cytotoxicity [20] was “high cytotoxicity”, the intracellular accumulation [20] was “good intracellular accumulation” and the “percentage of apoptotic cells” value [12, 21] was “an increase in the percentage of apoptotic cells”. For the same compound, the “reduction in tumor volume” value [12, 21] was 60% and the “tolerability / safety profile” value ([12]; nude mice with subcutaneous DU-145 cells) was “well tolerated and had a better safety profile”.
